# Source: article PMC9252919, “Controlled masking and targeted release of redox-cycling ortho-quinones via a C–C bond-cleaving 1,6-elimination” (Nature Chemistry, 2022)
# What was measured:
# HL-60 cells = test: Lysosomal deacidification and inhibition assay; assay type: cell-based, human; conditions: HL-60
# Description: Assays to assess the effect of lysosomal activity on prodrugs were performed as follows: HL-60 cells were plated into 96-well plates at a concentration of 2.5 × 10^5 cells ml^−1 in 180 µl media. Cells were treated with 10 µl of a stock of NH4Cl in PBS (to obtain an in-plate concentration of 3 or 30 mM), 10 µl of a dilution of a DMSO stock of E64d in PBS (to obtain an in-plate concentration of 30 μM), PBS only or a dilution of DMSO in PBS. Cells were incubated for 30 min. Following this, 10 µl of a stock of test compound made by dilution of a DMSO stock into media was added. DMSO was present in-plate at a maximum of 0.2%. Cells were incubated overnight for 16 h. Following incubation, media was replaced with media containing CellTiter-Blue (Promega) in 1:4 dilution and the plates were incubated for 6 h. The fluorescence of the plates was recorded (excitation, 555 nm; emission, 585 nm; MiniMax i3x Reader, Molecular Devices). Cell viability was calculated by division of the fluorescence intensity of treated wells by that of the average fluorescence intensity of the relevant negative control wells.
# AML cell line MOLM-13 = test: Viability assay with small-molecule prodrugs, MOLM-13; assay type: cell-based; conditions: MOLM-13
# Description: (§1) For assays assessing cytotoxicity of β-lapachone versus small-molecule prodrugs, antibodies and ADCs, suspension cells were plated into 24-well plates at a density of 2.5 × 10^5 cells ml^−1 in 240 µl. Stocks of ADC or antibody in PBS were normalized to 12.5 µM. Serial dilutions of compound were made up in PBS. Then, 60 µl of each stock of either PBS or compound in PBS was added to the cells to achieve the desired final concentration. After the specified incubation time, toxicity was assessed by counting of live cells using the trypan blue exclusion method with a Countess II Automated Cell Counter (ThermoFisher Scientific) according to the manufacturer’s instructions. Cell viability was determined by dividing the average live cell number of treated wells by the average live cell number for control wells treated with PBS only. IC50 values were calculated using GraphPad Prism software. Note: for the assay performed over 96 h, 5% human serum was added to media instead of 10% fetal bovine serum, to limit non-specific antibody internalisation. This had little effect on ADC toxicity.
# CD33+ HL-60 cells = test: Viability assay with small-molecule prodrugs and ADCs, HL-60; assay type: cell-based, human
# Description: as §1
# HEL cells = test: Viability assay with ADCs, HEL, trypan blue exclusion; assay type: cell-based, human; conditions: 96 h
# Description: as §1
Molecule,toxicity after lysosomal deacidification (NH4Cl) or inhibition (E64d) (HL-60 cells),IC50 relative to 1 in MOLM-13 (AML cell line MOLM-13) [fold],IC50 relative to 1 in HL-60 (CD33+ HL-60 cells) [fold],toxicity to HEL at 2.5 µM (HEL cells; 2.5 µM),in vitro toxicity against HEL (HEL cells; live cell count)
CC(C)C(NC(=O)OCc1ccccc1)C(=O)NC(CCCNC(N)=O)C(=O)Nc1ccc(CC2(O)C(=O)C3=C(OC(C)(C)CC3)c3ccccc32)cc1 (centres unmarked) [Compound 26],less toxic,10,10,,
"Gem-IgG1: native IgG1 antibody containing the variable region of gemtuzumab (antibody, chains of the INN, looked up, V domains shown, IgG1, native IgG1 antibody containing the variable region of gemtuzumab) VH: EVQLVQSGAEVKKPGSSVKVSCKASGYTITDSNIHWVRQAPGQSLEWIGYIYPYNGGTDYNQKFKNRATLTVDNPTNTAYMELSSLRSEDTAFYYCVNGNPWLAYWGQGTLVTVSS VL: DIQLTQSPSTLSASVGDRVTITCRASESLDNYGIRFLTWFQQKPGKAPKLLMYAASNQGSGVPSRFSGSGSGTEFTLTISSLQPDDFATYYCQQTKEVPWSFGQGTKVEVK",,,,no toxicity,no apparent toxicity
